Data from patent publication US11274106B2, “Topoisomerase inhibitors with antibacterial and anticancer activity” (THE BOARD OF TRUSTEES OF THE UNIVERSITY OF ILLINOIS, priority 2017, dated 2022).
Values after ≈ are worked out from the molar mass of the structure shown. Blank lines part the entries; values can stand above or below the molecule they belong to.

How the values were obtained:
Top1 = target: T1, Top1 (Homo sapiens, UniProt P11387); experiment: Top1 DNA relaxation assay (pBR322); assay type: biochemical; conditions: for Inhibition of Top1 relaxation: supercoiled pBR322, FIG. 3b
T1 sequence (P11387 1-765): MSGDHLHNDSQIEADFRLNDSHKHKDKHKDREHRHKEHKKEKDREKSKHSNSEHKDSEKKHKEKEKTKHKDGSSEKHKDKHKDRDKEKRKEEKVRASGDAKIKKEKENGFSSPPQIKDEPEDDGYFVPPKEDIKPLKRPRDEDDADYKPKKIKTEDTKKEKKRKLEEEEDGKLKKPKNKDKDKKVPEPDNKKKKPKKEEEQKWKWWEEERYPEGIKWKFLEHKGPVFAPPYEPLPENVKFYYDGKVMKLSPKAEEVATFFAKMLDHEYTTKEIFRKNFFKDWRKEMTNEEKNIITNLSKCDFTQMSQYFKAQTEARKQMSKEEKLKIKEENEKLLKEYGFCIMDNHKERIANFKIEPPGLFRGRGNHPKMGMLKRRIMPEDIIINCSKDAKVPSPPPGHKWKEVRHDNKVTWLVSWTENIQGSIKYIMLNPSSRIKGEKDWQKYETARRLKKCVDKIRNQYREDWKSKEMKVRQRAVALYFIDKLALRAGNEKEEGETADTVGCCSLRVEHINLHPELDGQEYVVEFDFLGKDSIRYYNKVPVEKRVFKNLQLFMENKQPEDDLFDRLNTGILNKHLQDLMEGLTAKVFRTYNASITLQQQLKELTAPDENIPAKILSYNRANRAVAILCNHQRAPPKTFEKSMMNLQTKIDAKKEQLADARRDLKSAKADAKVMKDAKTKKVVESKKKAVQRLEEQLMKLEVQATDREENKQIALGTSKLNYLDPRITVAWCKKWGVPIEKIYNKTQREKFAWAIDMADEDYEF
Excerpt: FIG. 3. DNM derivatives are dual Top1/Top2 inhibitors with different modes of inhibition. (a) Inhibition of decatenating ability of Top2α with increasing concentrations of ETP, 6DNM-NH3, 6DNM-Pyr, and Ph-6DNM-NH3. K, kinetoplast DNA; OC, open circular; R, relaxed. (b) Inhibition of relaxing ability of Top1 with increasing concentrations of CPT, 6DNM-NH3, 6DNM-Pyr, and Ph-6DNM-NH3. R, relaxed; S, supercoiled. (c) Detection of Top2a-DNA using the ICE Assay. Genomic DNA ([…]) of H460 cells treated with drugs (50 μM, 30 min) was applied to nitrocellulose membrane and immunoblotted for Top2a. (d) Detection of Top1-DNA adducts using ICE Assay. Same procedure as (c) using 1 μg of DNA. (e) Inhibition of ETP-induced poisoning of Top2a. H460 cells treated with indicated concentrations of inhibitor for 30 min prior to treatment with ETP (50 μM). Detection of Top2α as in (c).
To further investigate any mechanistic differences between these structurally related DNM analogues they were also evaluated against the other clinically-targeted mammalian topoisomerase, Top1, using a DNA relaxation assay in which purified Top1 relaxes supercoiled pBR322 and the two forms are separated by agarose gel electrophoresis.

Jurkat = experiment: Cell viability Alamar Blue assay, Jurkat; assay type: cell-based; conditions: Homo sapiens, 72 h, Leukemia, mean ± SEM
Excerpt: Topoisomerase inhibitors such as DOX are used as single agent and in combination therapy to treat a wide-range of cancer types.

E. coli TopoIV = E. coli TopoIV (Escherichia coli, UniProt P0AFI2+P20083); experiment: E. coli TopoIV decatenation assay; assay type: biochemical
Sequence of E. coli TopoIV (P0AFI2 whole entry): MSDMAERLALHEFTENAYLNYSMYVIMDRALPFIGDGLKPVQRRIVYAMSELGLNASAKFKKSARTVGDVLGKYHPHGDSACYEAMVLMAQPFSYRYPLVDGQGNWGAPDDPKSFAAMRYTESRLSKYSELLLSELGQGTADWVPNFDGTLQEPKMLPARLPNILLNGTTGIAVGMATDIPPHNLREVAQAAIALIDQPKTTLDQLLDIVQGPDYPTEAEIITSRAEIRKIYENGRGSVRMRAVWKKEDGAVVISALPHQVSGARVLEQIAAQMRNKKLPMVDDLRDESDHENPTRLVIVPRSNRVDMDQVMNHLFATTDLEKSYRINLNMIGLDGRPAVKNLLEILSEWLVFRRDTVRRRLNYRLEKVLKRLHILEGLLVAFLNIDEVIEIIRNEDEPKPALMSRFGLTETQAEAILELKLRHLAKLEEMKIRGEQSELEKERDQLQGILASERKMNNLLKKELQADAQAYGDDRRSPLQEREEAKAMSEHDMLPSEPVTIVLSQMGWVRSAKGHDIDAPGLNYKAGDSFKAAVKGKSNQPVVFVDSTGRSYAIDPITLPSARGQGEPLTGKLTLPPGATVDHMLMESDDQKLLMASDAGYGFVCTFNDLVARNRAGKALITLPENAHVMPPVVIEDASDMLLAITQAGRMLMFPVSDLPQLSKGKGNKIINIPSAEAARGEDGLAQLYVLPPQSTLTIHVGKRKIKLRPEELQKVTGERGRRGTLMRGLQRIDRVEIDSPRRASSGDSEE
Sequence of E. coli TopoIV (P20083 whole entry): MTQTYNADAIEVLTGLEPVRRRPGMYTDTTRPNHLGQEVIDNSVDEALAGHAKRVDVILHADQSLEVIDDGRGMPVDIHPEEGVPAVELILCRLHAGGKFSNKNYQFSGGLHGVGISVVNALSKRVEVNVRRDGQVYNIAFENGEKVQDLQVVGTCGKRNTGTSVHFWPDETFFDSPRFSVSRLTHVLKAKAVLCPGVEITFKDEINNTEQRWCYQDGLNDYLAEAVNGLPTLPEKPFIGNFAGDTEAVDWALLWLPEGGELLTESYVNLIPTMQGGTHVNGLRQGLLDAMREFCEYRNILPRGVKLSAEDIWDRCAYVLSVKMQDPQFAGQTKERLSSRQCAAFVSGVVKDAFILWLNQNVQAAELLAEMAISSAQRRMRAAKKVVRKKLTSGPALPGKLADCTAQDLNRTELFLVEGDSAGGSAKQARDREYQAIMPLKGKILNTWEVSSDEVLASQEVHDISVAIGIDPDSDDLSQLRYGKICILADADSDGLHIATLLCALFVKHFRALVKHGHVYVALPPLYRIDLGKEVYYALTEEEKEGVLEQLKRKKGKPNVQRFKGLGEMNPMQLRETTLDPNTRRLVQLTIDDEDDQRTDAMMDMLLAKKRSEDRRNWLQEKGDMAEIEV
Excerpt: (§1) FIG. 8. In vitro inhibitory activity of 6DNM-NH3, Ph-6DNM-NH3 against E. coli DNA gyrase and TopoIV.
(§2) DNM and its derivatives exert their antibacterial effects through inhibition of the DNA Gyrase.

E. coli DNA Gyrase = E. coli DNA Gyrase (Escherichia coli, UniProt P0AES4+P0AES6); experiment: E. coli DNA Gyrase supercoiling assay; assay type: biochemical
Excerpt: as §1, §2

MRSA = experiment: Antibacterial MIC, microbroth dilution, MRSA; assay type: cell-based, S. aureus; conditions: Staphylococcus aureus, MRSA; microbroth dilution
Protocol: To investigate this possibility, the antibacterial effects of the DNM derivatives was assessed against strains of E. coli, S. aureus, and MRSA using the microbroth dilution method (Table 2).

- IC50 (Jurkat): 20 ± 6 nM
SMILES: Cc1cc(=O)n(C)c2c3c4c(cc12)c(C)cc(=O)n4C(CN1CCCC1)CO3 (centres unmarked) [Compound 20]
- Inhibition of Top1 relaxation (Top1): inhibit relaxation at submicromolar concentrations

SMILES: Cc1cc(=O)n2c3c(c4c(cc13)c1ccccc1c(=O)n4C)OCC2CN (centres unmarked) [Compound 15]
- Fold less potent Top1 inhibitor than 6DNM-Pyr (Top1; DNA relaxation assay): more than 20 fold
- Inhibition of Top1 relaxation (Top1): approximately equipotent to the known Top1 inhibitor camptothecin
- IC50 (Jurkat): 290 ± 30 nM
- Inhibition of purified E. coli TopoIV (E. coli TopoIV): able to inhibit
- Inhibition of purified E. coli DNA Gyrase (E. coli DNA Gyrase): able to inhibit
- MIC (MRSA): 1 µg/mL (≈ 2.77 µM)
